In brackets after ≈: the same amount, converted by molar mass. Entries after “also recorded” stand apart in the source; their conditions may differ. Where a SMILES comes first, the peptide text is derived from it. Bridges are numbered along the chain shown (N, C = ends). [ ]: non-standard residue; d: D form. The star is where a group is joined. Decanoyl(3R-OH) = CCCCCCC[C@@H](O)CC(=O)*; dDab = NCC[C@@H](N)C(=O)O; Dab = NCC[C@H](N)C(=O)O
Tests used:
[1] = tested on: C. neoformans H99 (cap59Δ); type: cell-based, Cryptococcus neoformans; details: triplicate
From the text: The different susceptibility of C. neoformans and C. gattii to PMB compared to other pathogenic fungi such as C. albicans and A. fumigatus has been postulated to arise from differences in cell surface composition ([38]). One key difference is the presence of a negatively charged polysaccharide capsule in Cryptococcus spp. proposed to concentrate the cationic lipopeptides at the cell surface ([38]). To examine this potential interaction for the octapeptin series, a C. neoformans cap59Δ mutant strain deficient in the secretion of negatively charged glucuronoxylomannan (an α1–3-linked mannan containing β1,2 and β1,4 xylosyl substitutions, as well as β1,2-linked glucuronyl residues) ([41], [42]), was tested against octapeptin C4 in comparison to PMB.
Fungal strains were stored in 15% glycerol at −80°C until use. The fungal strains used were H99 (C. neoformans type strain) ([55]), cap59Δ (an acapsular H99 mutant) ([56]), ATCC 90113 (C. neoformans), MMRL 2651 (C. gattii), ATCC 90028 (Candida albicans), ATCC 90030 (Candida glabrata), ATCC 22019 (Candida parapsilosis), and ATCC MYA 3626 (Aspergillus fumigatus). Yeasts were cultured in liquid (1% yeast extract, 2% Bacto peptone, 2% glucose) or solid (additional 2% agar) yeast extract-peptone-dextrose (YPD) media at 30°C and maintained at 4°C for no longer than 2 weeks. A. fumigatus was prepared on potato dextrose medium at 30°C and maintained at 4°C for no longer than 2 weeks.
The MICs of the yeast strains for PMB, PME, and octapeptin C4 and its derivatives were determined in accordance with CLSI M27-A2 guidelines using YNB (Becton Dickinson, USA) medium supplemented with 10 mM ammonium sulfate and 2% glucose, a final inoculum concentration of 1.5 × 10^3 to 2.0 × 10^3 cells/ml, and incubation at 35°C for 72 h ([39]). […] The MICs for PMB, PME, and octapeptin C4 for A. fumigatus were determined in accordance with the CLSI M38-A2 guidelines ([40]) using synthetic RPMI 1640 medium (with glutamine, without bicarbonate and with phenol red; Life Technologies, USA). The final inoculum concentration was 0.4 × 10^4 to 5 × 10^4 cells/ml, with incubation at 35°C for 48 h. […] All assays were completed in triplicate. Fluconazole was used as a positive control where the MIC was determined at both 50% growth (in accordance with CLSI M27-A2 guidelines) and when there was a “no visible growth” reading.

[2] = tested on: capsule-induced or -suppressed C. neoformans H99 cells; test: In vitro time course assay of capsule influence; type: cell-based, Cryptococcus neoformans; details: H99; PMB at 12.5 μM, octapeptin C4 at 1.56 μM; 0-8 h; two replicates
Method: (A) C. neoformans grown on capsule inducing RPMI 1640 agar medium (without L-glutamine and sodium bicarbonate) with incubation at 37°C in 5% CO2 for 3 days. Scale bar, 20 μm. (B) C. neoformans grown on capsule-suppressing media, YPD containing 1 M NaCl at 30°C in ambient air for 3 days. […] The data represent the means of two replicates, and the error bars represent the standard errors of the mean (SEM).
Capsule induction of strain H99 was achieved as described by Zhai et al. ([37]) with growth on RPMI 1640 (without L-glutamine and sodium bicarbonate) (Sigma, Australia) agar medium and incubation at 37°C in 5% CO2 and capsule suppression by growth on YPD containing 1 M NaCl at 30°C in ambient air. After 3 days, the cells from each culture were collected, washed twice with phosphate-buffered saline (PBS), and resuspended in PBS to avoid changes in the capsule at a density of 1,500 to 2,000 cells/ml. Cell suspensions were treated with test compounds at the determined MIC value. The compounds tested were PMB sulfate, octapeptin C4, and the octapeptin C4 alanine scan derivatives P1L, P1D, P4, P3, P4L, P4D, P5, P6, P7, and P8. At 0, 1, 2, 4, 6, and 8 h after inoculation, samples from each treatment were spread onto a YPD plate, followed by incubation at 30°C for 3 days, at which time the colonies were counted. The assay was repeated in duplicate, and paired sample t tests were performed using GraphPad Prism v7.0 (GraphPad Software, USA).

[3] = tested on: melanized and nonmelanized C. neoformans cells; test: In vitro time course assay of melanization effect; type: cell-based, Cryptococcus neoformans; details: melanin induced on L-DOPA agar vs suppressed on YPD agar; PMB at 12.5 μM, octapeptin C4 at 1.56 μM; 0-8 h; two replicates
Method: (A) Melanin suppressed C. neoformans. (B) Melanin induced C. neoformans. […] Samples from each flask were taken 0, 1, 2, 4, 6, and 8 h after inoculation, spread onto a YPD plate, and incubated at 30°C for 3 days, at which time the colonies were counted. The data represent the means of two replicates, and the error bars represent the SEM.
Melanization was induced by growth on L-DOPA agar medium at 30°C and suppressed by growth on YPD agar medium at 30°C. Cells were grown over 3 days and collected, washed twice in PBS, and then resuspended in PBS at a density of 1,500 to 2,000 cells/ml. Aliquots of the cells were treated with PMB sulfate, octapeptin C4, and the octapeptin C4 derivatives P1L, P1D, P4, P3, P4L, P4D, P5, P6, P7, and P8 at the determined MICs. At 0, 1, 2, 4, 6, and 8 h after inoculation, samples of the suspension were spread onto YPD agar and incubated at 30°C for 3 days, and the colonies were counted. The assay was repeated in duplicate, and paired sample t tests were performed in GraphPad Prism v7.0.

C. neoformans ATCC 90113 = details: ATCC 90113, 72 h
human kidney-2 cell line = details: cited from earlier work

Structure (SMILES): CCCCCCC[C@@H](O)CC(=O)N[C@H](CCN)C(=O)N[C@H]1CCNC(=O)[C@H](CC(C)C)NC(=O)[C@H](CCN)NC(=O)[C@H](CCN)NC(=O)[C@H](CC(C)C)NC(=O)[C@@H](Cc2ccccc2)NC(=O)[C@H](CCN)NC1=O [Octapeptin C4, octapeptin C4] ({Decanoyl(3R-OH)}-[dDab][Dab][Dab][dF]L[Dab][Dab]L; lactam 2-C (inferred); N-terminus assumed)
- MIC C. neoformans H99 (cap59Δ) ([1]; Table 1, CLSI M27-A2, YNB medium, 35°C, no visible growth after 72 h): 6.25 µg/mL (≈ 5.98 µM)
- MICs against various Cryptococcus strains: H99 (cap59Δ) ([1]; Table 2, values consistent across replicates): 6.25 µg/mL
- effect of capsule formation on fungicidal activity [2]: retarded the fungicidal activity; also recorded: small but statistically significant increase in survival
- effect of melanization on fungicidal activity [3]: slightly enhanced
- MIC C. neoformans ATCC 90113 (C. neoformans ATCC 90113): 1.56 µg/mL (≈ 1.49 µM)
- MICs against various Cryptococcus strains: ATCC 90113 (C. neoformans ATCC 90113): 1.56 µg/mL
- 50% cytotoxic concentration (human kidney-2 cell line): 31 µM

— publication PMC5786788, “Antimicrobial Octapeptin C4 Analogues Active against Cryptococcus Species” (Antimicrobial Agents and Chemotherapy, 2018)
